Here are results for one substance from US20250020668A1, “CANCER LESION TISSUE EVALUATION FOR OPTIMIZING EFFECT OF BORON NEUTRON CAPTURE THERAPY” (3-D Matrix, Ltd., priority 2018, published 2025).

For the experiment, the system named is PABPc1. Kind of experiment: Immunoprecipitation with anti-BSH antibody from U251 cell crushing solution. It counts as binding. Particulars: 50 μM, FIG. 2 and FIG. 3 combined. As to the method: To a cell crushing solution of a malignant brain tumor cell line U251, simple BSH (referred to BSH) (50 μM) or BSH-11R (50 μM) was added, and proteins which bind to BSH and BSH-11R were explored by immunoprecipitation with an anti-BSH antibody (10 μg).
To examine whether the binding of BSH-11R to the translation-related factors is a direct or indirect binding, a subline of malignant brain tumor cell line U251 that underwent knockdown of the translation-related factors with shRNA lentivirus was prepared. To the cell crushing solutions, BSH-11R (50 μM) was added, and translation-related factors that bind to BSH-11R were analyzed with an anti-BSH antibody (10 μg).

As to mercaptoundecahydrodecaborate [BSH], the “binding to PABPc1” value is “binds to BSH in an RNA-dependent manner”.
